Data published in ChEMBL document CHEMBL1130607, “Reversal of multidrug resistance (MDR) by aspidofractinine-type indole alkaloids” (Bioorg Med Chem Lett, 1998).
≈ marks a conversion by molar mass, not a printed value.

system: Epidermoid carcinoma cell line; test: Compound was evaluated for cytotoxicity against vincristine- resistant (KB/VJ300) human oral epidermoid carcinoma cell line; poor activity or moderate activity; format: functional, cell-based; conditions: not given

SMILES	IC50
COC(=O)N1c2c(ccc3c2OCO3)[C@]23CC(=O)C[C@@]4(CCCN(C=O)[C@@H]42)CCC13C(=O)OC (stereo partly specified) [DANUPHYLLINE]	poor activity or moderate activity
COC(=O)N1c2c(OC)cccc2[C@@]23CCN4CC[C@H](O)[C@]5(CC[C@]12[C@](O)(C(=O)OC)[C@@H]5O)[C@H]43 [KOPSINGANOL]	poor activity or moderate activity
COC(=O)N1c2c(OC)cccc2[C@@]23[C@H]4C(=O)[C@@]5(O)[C@H]6O[C@H]4N4CC[C@H](O)[C@]6(CC[C@]125)[C@H]43	poor activity or moderate activity
CCO[C@H]1C[C@@H]2O[C@@H]3[C@]14CC[C@@]1(N(C(=O)OC)c5c(OC)cccc5[C@@]15CCN2[C@@H]45)[C@]3(O)C(=O)OC [KOPSIDINE B]	poor activity or moderate activity
COC(=O)N1c2c(ccc3c2OCO3)[C@@]23CC(=O)N(CCCC4=CC[C@]12[C@](O)(C(=O)OC)C4)C3=O [PAUCIFLORINE A]	poor activity or moderate activity
COC(=O)N1c2c(ccc3c2OCO3)[C@]23[C@H]4OC(=O)[C@@]5(O)C[C@@]6(CCCN(C4=O)[C@@]62O)CC[C@]135 [paucidactine A]	poor activity or moderate activity
COC(=O)N1c2c(OC)cccc2[C@@]23CCN4C[C@H]5O[C@H]5[C@]5(CC[C@]12[C@](O)(C(=O)OC)[C@@H]5O)[C@H]43	poor activity or moderate activity
COC(=O)N1c2ccccc2[C@@]23[C@@H]4CN5CCC[C@]6(CC[C@]12[C@@H](O)[C@@H]6C4=O)[C@H]53 [FRUTICOSAMINE]	poor activity or moderate activity

system: Epidermoid carcinoma cell line; test: Compound was evaluated for cytotoxicity against vincristine- resistant (KB/VJ300) human oral epidermoid carcinoma cell line; format: functional, cell-based; conditions: not given

SMILES	IC50 [µg/mL]
COC(=O)N1c2c(OC)cccc2[C@@]23CCN4CC=C[C@]5(CC[C@]12[C@](O)(C(=O)OC)[C@@H]5O)[C@H]43 [KOPSINGINE]	> 25
COC(=O)[C@@H]1CC23CCCN4CC[C@@]5(c6cccc(OC)c6N(C(=O)OC)C15CC2)[C@@H]43 (stereo partly specified)	21 (≈ 49.2 µM)
COC(=O)[C@@H]1CC23CCCN4CC[C@@]5(c6ccccc6NC15CC2)[C@@H]43 (stereo partly specified) [KOPSININE]	25 (≈ 73.9 µM)
COC(=O)N1c2c(OC)cccc2[C@@]23CCN4CCCC5(CCC12[C@](O)(C(=O)OC)C5)[C@H]43 (stereo partly specified) [KOPSILONGINE]	15.4 (≈ 34.8 µM)

system: Epidermoid carcinoma cell line; test: Compound was evaluated for cytotoxicity against vincristine- resistant (KB/VJ300) human oral epidermoid carcinoma cell line; P = poor activity or moderate activity; format: functional, cell-based; conditions: Homo sapiens, Epidermoid carcinoma cell line; read-out: IC50

SMILES	IC50 [µg/mL]
COC(=O)N1c2c(ccc(O)c2OC)[C@@]23CCN4CCCC5(CCC12[C@](O)(C(=O)OC)C5)[C@H]43 (stereo partly specified)	> 25

same assay, conditions: epidermoid carcinoma cell line

SMILES	IC50
COC(=O)N1c2c(OC)cccc2[C@@]23CCN4CCC[C@]5(CC[C@]12[C@](O)(C(=O)OC)[C@@H]5O)[C@H]43 [DIHYDROKOPSINGINE]	Poor or moderate activity

system: Epidermoid carcinoma cell line; test: Compound was evaluated for cytotoxicity against vincristine-resistant (KB/VJ300) human oral epidermoid carcinoma cell line; format: functional, cell-based; conditions: not given

SMILES	IC50 [µg/mL]
COC(=O)N1c2c(ccc3c2OCO3)[C@@]23CCN4CCCC5(CCC12[C@](O)(C(=O)OC)C5)[C@]43C#N (stereo partly specified) [LAHADININE A]	2.5 (≈ 5.19 µM)
COC(=O)[C@@H]1CC23CCCN4CC[C@@]5(c6ccccc6N(C(=O)OC)C15CC2)[C@@H]43 (stereo partly specified) [PLEIOCARPINE]	3.1 (≈ 7.82 µM)
COC(=O)C1=CC23CCCN4CC[C@@]5(c6ccc7c(c6N(C(=O)OC)C15CC2)OCO7)[C@@H]43 (stereo partly specified)	4.4 (≈ 10 µM)
COC(=O)N1c2ccccc2[C@@]23CCN4CCCC5(CCC12[C@](O)(C(=O)OC)C5)[C@H]43 (stereo partly specified) [KOPSIFLORINE]	2.3 (≈ 5.58 µM)
COC(=O)N1c2c(ccc3c2OCO3)[C@@]23CCN4CCCC5(CCC12[C@](O)(C(=O)OC)C5)[C@H]43 (stereo partly specified) [KOPSAMINE]	5.6 (≈ 12.3 µM)
COC(=O)N1c2c(ccc(OC)c2OC)[C@@]23CCN4CCCC5(CCC12[C@](O)(C(=O)OC)C5)[C@H]43 (stereo partly specified)	1.6 (≈ 3.39 µM)

system: Epidermoid carcinoma cell line; test: Compound was evaluated for cytotoxicity against vincristine- sensitive (KB/S) human oral epidermoid carcinoma cell line at 7 ug/mL; format: functional; conditions: not given

SMILES	Cell growth [%]
COC(=O)C1=CC23CCCN4CC[C@@]5(c6cccc(OC)c6N(C(=O)OC)C15CC2)[C@@H]43 (stereo partly specified)	<50
